# Results: US8124582B2, “Treatment of diabetes” (FibroGen, Inc., priority 2002, dated 2012)
# Experiments:
# [1] = Blood glucose levels after 14 days oral dosing; assay type: in vivo, male Sprague Dawley rats; conditions: rats, 20, 60, 100, or 200 mg/kg oral gavage once daily for 14 days, overnight fast, day 15; FIG. 4
# Experimental: The effect of compound administration on blood glucose levels was examined as follows. Fifty male Sprague Dawley rats (6-7 weeks old) obtained from Simonsen, Inc. were dosed with 0.5% CMC (Sigma-Aldrich) or compound B at 20, 60, 100, or 200 mg/kg body weight by oral gavage once daily for 14 consecutive days. Animals were monitored for changes in body weight and signs of overt toxicity and mortality. […] One sample of approximately 1 ml was collected into tubes containing EDTA for hematological analysis, and a second sample of approximately 1 ml was collected into a tube with no anticoagulant for serum chemistry analysis. Blood sample analyses were performed by IDEXX (West Sacramento, Calif.).
# IGFBP-1 = assay: In vivo IGFBP-1 gene expression in kidney and liver (microarray); set-up: species or system Swiss Webster male mice; conditions: mice, oral gavage; time course; quantitatively different level between tissues; FIG. 3B
# Experimental: To determine gene induction patterns over time, twenty four Swiss Webster male mice (30-32 g) were obtained from Simonsen, Inc. and treated by oral gavage with a 4 ml/kg volume of either 0.5% carboxymethyl cellulose (CMC; Sigma-Aldrich, St. Louis Mo.) (0 mg/kg/day) or […] compound B (25 mg/ml in 0.5% CMC) (100 mg/kg). At 4, 8, 16, 24, 48, or 72 hours after the final dose, animals were anesthetized with isoflurane. The mice were then sacrificed and tissue samples of kidney, liver, brain, lung, and heart were isolated and stored in RNALATER solution (Ambion) at −80° C.
# RNA from tissues obtained from the experiments described above was isolated using the following protocol. A 50 mg section of each organ was diced, 875 μl of RLT buffer (RNEASY kit; Qiagen Inc., Valencia Calif.) was added, and the pieces were homogenized for about 20 seconds using a rotor-stator POLYTRON homogenizer (Kinematica, Inc., Cincinnati Ohio). […] The RNA was eluted into 80 μL of water and quantitated with RIBOGREEN reagent (Molecular Probes, Eugene Oreg.). […] The absorbance at 260 and 280 nm was measured to determine RNA purity and concentration.
# Alternatively, tissue samples were diced and homogenized in TRIZOL reagent (Invitrogen Life Technologies, Carlsbad Calif.) using a rotor-stator POLYTRON homogenizer (Kinematica). […] The absorbance at 260 and 280 nm was measured to determine RNA purity and concentration. […]
# [2] = Body weight gain, organ weight and visceral fat after 14 days oral dosing; assay type: in vivo, male Sprague Dawley rats
# Experimental: The effect of compounds of the present invention on weight loss and fat stores in animals was examined as follows. Fifty male Sprague Dawley rats (6-7 weeks old) obtained from Simonsen, Inc. were dosed with 0.5% CMC (Sigma-Aldrich) or compound B at 20, 60, 100, or 200 mg/kg body weight by oral gavage once daily for 14 consecutive days. Animals were monitored for changes in body weight and signs of overt toxicity and mortality. On day 15, following an overnight fast with water available ad libitum, animals were anesthetized with isoflurane. One whole blood sample of approximately 1 ml was collected into tubes containing EDTA for hematological analysis, and a second sample of approximately 1 ml was collected into a tube with no anticoagulant for serum chemistry analysis. Blood sample analyses were performed by IDEXX (West Sacramento, Calif.). Following blood collection, the diaphragm was incised and the animals were sacrificed. Macroscopic observations were recorded for each animal and the liver, kidneys, heart, spleen, lungs, stomach, small intestines, and large intestines were collected for histological assessment.
smiles,measurement,setting,value
"O=C(O)CNC(=O)c1nc(Cl)c2ccccc2c1O [compound B, [(1-Chloro4-hydroxy-isoquinoline-3-carbonyl)-amino]-acetic acid]",blood glucose levels,[1],dose-dependent decrease
same,IGFBP-1 expression in kidney and liver,IGFBP-1,almost identical temporal induction
same,"relative heart weight, expressed as a fraction of the total body weight, compared to control","[2]; rats, 100 mg/kg, p=0.036, one-way ANOVA/Tukey's test",significantly increased
same,weight gain,"[2]; rats, 20, 60, 100, or 200 mg/kg oral gavage once daily for 14 days, FIG. 7A",dose-dependent retardation
same,visceral fat,"[2]; rats, 20 to 200 mg/kg oral gavage 14 days, FIG. 8",dose-dependent reduction
same,visceral fat pads at higher doses,"[2]; rats, higher doses of compound, FIG. 8 bottom panel",complete absence of fat pads
same,absolute heart weight compared to control,"[2]; rats, oral gavage 14 days, FIG. 7B",no statistically significant difference
